Test results as given in patent US20150119435A1, “COMPOUNDS USEFUL FOR PROMOTING PROTEIN DEGRADATION AND METHODS USING SAME” (YALE UNIVERSITY, priority 2012, published 2015).

Assays:
[1] = tested on: androgen dependent LnCAP cells; assay: Proliferation of androgen dependent LnCAP prostate cancer cells; type: cell-based; settings: 1 μM, several days
Source text: (§1) FIG. 26, comprising FIGS. 26A-26C, is a series of graphs illustrating in vitro activity of SARDS compounds. FIG. 26A: effect of SARDS on cell proliferation of LnCAPs. FIG. 26B: effect of SARDS on the proliferation of non-AR dependent cell lines. FIG. 26C: effect of SARDS on androgen independent prostate cancer cells.

androgen receptor (AR) = target: T1, androgen receptor (AR) (Homo sapiens, UniProt P10275); assay: SARD mediated AR degradation (western blot); settings: for AR degradation (in words): at the concentrations assayed
T1 sequence (P10275 1-920): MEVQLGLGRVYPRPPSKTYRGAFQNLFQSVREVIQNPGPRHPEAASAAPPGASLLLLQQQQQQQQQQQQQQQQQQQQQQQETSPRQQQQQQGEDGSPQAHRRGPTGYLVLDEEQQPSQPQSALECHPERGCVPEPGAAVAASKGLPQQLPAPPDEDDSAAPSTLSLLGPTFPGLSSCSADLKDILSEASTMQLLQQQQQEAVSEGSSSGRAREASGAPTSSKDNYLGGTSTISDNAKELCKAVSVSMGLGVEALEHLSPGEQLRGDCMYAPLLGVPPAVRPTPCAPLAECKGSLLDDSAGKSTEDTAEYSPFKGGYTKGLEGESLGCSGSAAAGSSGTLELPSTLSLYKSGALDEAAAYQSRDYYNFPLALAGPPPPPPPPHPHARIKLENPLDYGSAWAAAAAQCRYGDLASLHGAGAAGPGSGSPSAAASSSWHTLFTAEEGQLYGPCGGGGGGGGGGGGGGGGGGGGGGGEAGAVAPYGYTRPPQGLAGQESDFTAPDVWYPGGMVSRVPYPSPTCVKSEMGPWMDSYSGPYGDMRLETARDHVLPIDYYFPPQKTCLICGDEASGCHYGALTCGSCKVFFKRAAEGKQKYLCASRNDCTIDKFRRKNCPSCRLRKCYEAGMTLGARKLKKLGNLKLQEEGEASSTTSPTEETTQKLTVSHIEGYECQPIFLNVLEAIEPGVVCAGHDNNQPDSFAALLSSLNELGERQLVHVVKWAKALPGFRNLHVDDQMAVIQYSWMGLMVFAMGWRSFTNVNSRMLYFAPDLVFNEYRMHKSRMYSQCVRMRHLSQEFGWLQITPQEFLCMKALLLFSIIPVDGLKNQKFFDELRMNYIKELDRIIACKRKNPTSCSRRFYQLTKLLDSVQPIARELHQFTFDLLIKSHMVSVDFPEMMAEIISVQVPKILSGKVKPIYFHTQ

[2] = tested on: AR-independent HEK293 cells; assay: General cell toxicity in AR-independent HEK293 cells; type: cell-based; settings: HEK293, 1 μM, 48 h
Protocol: as §1
(§2) To access general cell toxicity, AR-independent HEK293 and HELA cells were treated with 1 μM SARD 279.

[3] = tested on: AR-independent HELA cells; assay: General cell toxicity in AR-independent HELA cells; type: cell-based; settings: 1 μM, 48 h
Protocol: as §1, §2

CC1(C)C(=O)N(c2ccc(C#N)c(C(F)(F)F)c2)C(=S)N1CCCC(=O)NCCOCCOCCOCCOC12CC3CC(CC(C3)C1)C2 [SARD 033, N-(2-(2-(2-(2-(Adamantan-1-yloxy)ethoxy)ethoxy)ethoxy)ethyl)-4-(3-(4-cyano-3-(trifluoromethyl)phenyl)-5,5-dimethyl-4-oxo-2-thioxoimidazolidin-1-yl)butanamide]
Cell growth / proliferation of LnCAP cells [1]: significantly attenuated cell growth

CC1(C)C(=O)N(c2ccc(C#N)c(C(F)(F)F)c2)C(=S)N1CCCCO [RU 59063, 4-[3-(4-hydroxybutyl)-4,4-dimethyl-5-oxo-2-thioxoimidazolidin-1-yl]-2-(trifluoromethyl)benzonitrile, reference compound]
AR degradation (in words) (androgen receptor (AR)): no degradation was detected

CCOCCOCCNC(=O)CCCN1C(=S)N(c2ccc(C#N)c(C(F)(F)F)c2)C(=O)C1(C)C [SARD 280, 4-(3-(4-Cyano-3-(trifluoromethyl)phenyl)-5,5-dimethyl-4-oxo-2-thioxoimidazolidin-1-yl)-N-(2-(2-ethoxyethoxyl)ethyl)butanamide]
AR degradation (in words) (androgen receptor (AR)): affected degradation only at higher concentrations and did not achieve complete AR degradation at the concentrations assayed

CC1(C)C(=O)N(c2ccc(C#N)c(C(F)(F)F)c2)C(=S)N1CCCC(=O)NCCOCCOC(=O)CC12CC3CC(CC(C3)C1)C2 [SARD 279, 2-(2-(4-(3-(4-Cyano-3-(trifluoromethyl)phenyl)-5,5-dimethyl-4-oxo-2-thioxoimidazolidin-1-yl)butanamido)ethoxy)ethyl 2-(adamantan-1-yl)acetate]
DC50 (androgen receptor (AR); read-out: DC50 (half maximum degradation concentration) of AR, AR degradation, western blot): 1 µM
Cytotoxicity compared to vehicle [2]: did not display cytotoxic results
Cytotoxicity compared to vehicle [3]: did not display cytotoxic results
